{"source": "patent US10758522B2", "about": "“Small molecule analogs of the nemo binding peptide” (THE SCRIPPS RESEARCH INSTITUTE, priority 2015, dated 2020)", "key": {"[1]": {"biological_target": "T1, IKK complex (IKKß, IKKα and NEMO) (Homo sapiens, UniProt Q9Y6K9)", "T1 construct": "analyzed by Western blot for the level of co-precipitated NEMO; endogenous in cells; host or cells: 293 (HEK293) cells", "T1 sequence (Q9Y6K9 whole entry, one chain of several)": "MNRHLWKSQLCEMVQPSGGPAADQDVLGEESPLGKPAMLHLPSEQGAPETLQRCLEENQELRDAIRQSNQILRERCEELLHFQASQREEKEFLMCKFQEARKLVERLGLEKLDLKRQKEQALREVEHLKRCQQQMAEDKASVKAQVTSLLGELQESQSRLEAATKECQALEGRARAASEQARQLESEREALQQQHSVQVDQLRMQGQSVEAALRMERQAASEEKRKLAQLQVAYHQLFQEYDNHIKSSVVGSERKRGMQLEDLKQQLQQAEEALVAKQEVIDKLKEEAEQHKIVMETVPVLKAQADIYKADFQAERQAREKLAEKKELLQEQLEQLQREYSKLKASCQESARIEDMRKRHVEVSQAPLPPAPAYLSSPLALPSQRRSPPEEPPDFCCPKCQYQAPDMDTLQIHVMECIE", "test": "Co-immunoprecipitation of NEMO with IKKß in 293 cells", "assay_type": "cell-based", "settings": "Zinc-5 at 4 hours, Zinc-13 at 1 hour, NBD peptide at 4 hours", "text": "FIG. 8 is a bar graph showing the inhibition of TNFα by NBDA-1 (Zinc-13). […] In addition, we have examined the ability of the compounds to disrupt the IKK complex, comprised of IKKß, IKKα and NEMO.\nA non-functional, related compound Zinc-7 had no effect."}, "IKKβ-NEMO interaction": {"system": "IKKβ-NEMO interaction", "test": "Immunoprecipitation of NEMO and IKKβ immunoblot in Raw 264.7 macrophages and HEK293 cells", "assay_type": "cell-based", "settings": "Raw 264.7 macrophages / HEK293; mimetics 100 μM, 8K-NBD 400 μM", "method": "The NBD mimetics reduce the interaction between IKKg (NEMO) and IKKß. The indicated concentrations of the drugs were added to HEK 293 or Raw 264.7 cells and cell extracts prepared 30 minutes later. Following immunoprecipitation (IP) of NEMO, the Western was probed for IKKß.\nAfter treatment with the mimetics or NBD peptide, NEMO was immunoprecipitated by an anti-NEMO antibody and IKKβ was immunoblotted to determine the binding of IKKβ to NEMO.\nHEK293 or Raw264.7 cells were seeded at 1×10^6 cells/well in 6-well plates and treated with vehicle, small molecule or NBD peptide for indicated time. Cells were lysed in NP-40 lysis buffer supplemented with 1× protease inhibitor cocktails (sigma). Protein was immunoprecipitated by incubating 150 μg of lysate with 1 μg of anti-NEMO antibody (Santa Cruz) on a rotating shaker at 4° C. for 4 hrs, followed by incubation with 20 ul of Protein A agarose beads (ThermoFisher) for 1 hr. Beads were washed in NP40 buffer 3 times and PBS once. Protein was then denatured in SDS-sample buffer and resolved by MINI-PROTEAN TGX 4-15% SDS-PAGE. Anti-IKKβ (1:1000 CST) was used to assess binding of IKKβ to NEMO and anti-NEMO (1:1000 CST) or IgG were used to as a loading control."}, "NF-κB target genes": {"system": "NF-κB target genes", "test": "qRT-PCR of NF-κB target genes in LPS-stimulated Raw 264.7 cells", "assay_type": "cell-based, mouse", "settings": "Raw 264.7, LPS", "method": "Effect of the NBD mimetics on expression of NF-kB regulated genes in the Raw mouse macrophage cell line. Treatment of the Raw cells with the indicated drugs prior to addition of LPS reduced NF-kB-mediated gene expression as measured by RT-PCR.\nTo determine whether the inhibitory effect of the mimetics is TNF-α-dependent, LPS-mediated NF-κB activation via TLR4 was examined to determine a broader inhibitory effect of the novel NBD mimetics. NF-κB was stimulated in Raw 264.7 by 1 ug/ml of LPS for 2 hr and genes transcriptionally regulated by NF-κB were determined by qRT-PCR analysis. Both an IKK active site inhibitor IKKi VII (2 μM) and the 8K-NBD peptide (400 μM) were included as positive controls and the expression of COX2, IL-6, IL-1β, TNF-α, IκBα and iNOS were assessed.\nRaw 264.7 cells were treated with a 50 μM solution of the SR compound for 30 minutes, and then the mRNA was harvested 2 hours after addition of 1 μg/mL LPS.\nSnap frozen tissues were preserved in RNAlater RNA stabilization solution (ThermoFisher) before processed. Total RNA was extracted from cells or tissues using TRIZOL reagent (Life Technologies) and 1500 ng of messenger RNA (mRNA) was subjected to synthesize complementary DNA (cDNA) using SuperScript VILO cDNA synthesis kit. qRT-PCR was performed in a StepOnePlus Real-Time PCR system using Platinum SYBR Green qPCR SuperMix-UDG (ThermoFisher). Target gene expression was calculated using the comparative CT method (ΔΔCT) and normalized to an internal control gene Actb (β-actin). Primers used are as follows: Ptgs2 (COX-2) forward: […]; Ptgs2 (COX-2) reverse: […]; Nfkbia (IκBα) forward: […]; Nfkbia (IκBα) reverse: […]; Il1b (IL-1β) forward: […]; Il1b (IL-1β) reverse: […]; Nos2 (iNOS) forward: […]; Nos2 (iNOS) reverse: […]; Tnf (TNF) forward: […]; Tnf (TNF) reverse: […]; Il6 (IL-6) forward: […]; Il6 (IL-6) reverse: […]. Actb (β-actin) forward: […]; Actb (β-actin) reverse: […];"}, "mdx mice": {"system": "mdx mice", "test": "Chronic treatment of mdx mice (Duchenne muscular dystrophy model)", "assay_type": "in vivo, mouse", "settings": "ip 3 times/week for 4 weeks", "text": "Mdx mice develop normally at birth, and then undergo a massive myonecrosis starting at three weeks. Treatment of mdx mice with IKK/NF-kB inhibitors effectively reduces inflammation, block necrosis and increase muscle regeneration. Mdx mice were chronically treated with vehicle, SR12343, SR12460 or 8K-NBD starting from day 21, 3 times/week for 4 weeks. […] To determine if SR12343 and SR12460 improve muscle pathology, tibialis anterior (TA) muscle was stained with hematoxylin and eosin (H&E) to assess inflammatory infiltration, necrosis, central nucleation and fibrosis. […] Fiber size in centrally nucleated and non-centrally nucleated myofibers was also smaller in mice treated with SR12343 and 8K-NBD, indicating active reconstruction of myofiber during the regenerative phase.\nTo determine muscle strength post-treatment, grip strength test on forelimbs was performed 2 weeks and 4 weeks post-treatment.\nHEK293 cells were grown in Dulbecco's Modification of Eagles Medium (with 4.5 g/L glucose and L-glutamine), supplemented with 10% fetal bovine serum, penicillin and streptomycin. Raw264.7 cells were cultured in RPMI-1640 media containing 10% heat-inactivated fetal bovine serum, penicillin and streptomycin. C57BL/10ScSn-Dmd^mdx/J and female C57BL/6 mice were purchased from the Jackson Laboratory. Mice were housed in the animal facilities of Scripps Fla. under constant temperature and humidity. Animal protocols used in this study were approved by Scripps Fla. Institutional Animal Care and Use Committees. Three week-old sex-matched mdx mice were dosed with SR12343 (30 mg/kg), […] (30 mg/kg), 8K-NBD peptide (10 mg/kg) or vehicle by intraperitoneal (i.p.) injection 3 times per week for 4 weeks. Mice were sacrificed at 7 weeks of age by carbon dioxide inhalation and tibialis anterior was collected for histological analysis.\nSeven week-old treated or untreated mdx mice were measured for forelimb grip strength using a digital grip strength meter paired with a metal grid (Bioseb). Mice were allowed to grip the metal grid tightly and readings were obtained by gently pulling the tail backward until release. Five sequential measurements were performed and the average force was calculated.\nTissues fixed in 10% neutral buffered formalin (NBF) overnight were imbedded in paraffin. Tissue was sectioned at […] using a microtome. H&E staining was conducted following a standard protocol (REF)."}, "[2]": {"system": "K14-Cre; Ercc1−/flox mice", "test": "Topical treatment of skin aging in K14-Cre; Ercc1−/flox mice", "assay_type": "in vivo, mouse", "settings": "daily", "method": "To test the ability of NBDA-1 to function in vivo, the drug was tested in several models of aging. In FIG. 12, the ability of topical treatment of NBDA-1 to reduce signs of skin aging is shown. Areas on the back of normal mice or mice with enhanced skin aging (K14-Cre; Ercc1^−/flox) were shaved and then treated daily with drugs or control creams."}, "Ercc1−/Δ mice": {"system": "Ercc1−/Δ mice", "test": "Systemic treatment of Ercc1−/Δ mice, intervertebral disc proteoglycan", "assay_type": "in vivo, mouse", "settings": "IP 3× a week, 10 mg/kg for 8 weeks", "method": "The ability of the compounds to work systemically was also tested. In these experiments, Ercc1^−/Δ mice with accelerated aging (lifespan of 5 months) were treated systemically, 3× a week, by IP injection at a dose of 10 mg/kg for 8 weeks. Since we previously had shown that the NF-κB is a key factor in driving intervertebral disc degenerated, we assessed the effects of treatment on proteoglycan synthesis and content in the discus following treatment."}}, "data": [{"substance": "8K-NBD peptide: 8K-NBD (KKKKKKKKGGTALDWSWLQTE) peptide, NEMO binding domain peptide with protein transduction domain, control [reference compound]", "values": [{"measurement": "level of NEMO co-immunoprecipitated with IKKß", "setting": "[1]", "result": "reduced the level of co-immunoprecipitated NEMO"}, {"measurement": "disruption of IKKβ-NEMO interaction (NEMO IP, IKKβ blot)", "setting": "IKKβ-NEMO interaction", "result": "able to disrupt the protein-protein interaction in macrophages at 400 μM"}, {"measurement": "iNOS expression", "setting": "NF-κB target genes", "result": "significantly inhibited"}, {"measurement": "expression of eMyHC and Pax 7 in TA muscle (qRT-PCR)", "setting": "mdx mice", "result": "increased eMyHC expression, but to a lower extent compared to SR12343"}, {"measurement": "fiber size in centrally nucleated and non-centrally nucleated myofibers", "setting": "mdx mice", "result": "smaller"}, {"measurement": "tibialis anterior muscle pathology (H&E)", "setting": "mdx mice; SR compounds 30 mg/kg, 8K-NBD 10 mg/kg", "result": "reduced inflammatory cell infiltration and necrosis and also promoted muscle regeneration"}, {"measurement": "epidermal thickness / skin architecture", "setting": "[2]", "result": "improved skin architecture and increased epidermal thickness"}, {"measurement": "proteoglycan synthesis and content in the intervertebral disc", "setting": "Ercc1−/Δ mice", "result": "restored proteoglycan synthesis and content back to levels seen in normal, young mice"}]}]}
